Drawing on patent US20250282799A1, “SUBSTITUTED PYRIDO[4,3-d]PYRIMIDINES AS KRAS MODULATORS” (Alterome Therapeutics, Inc., priority 2023, published 2025), this text covers IC50 for 17 compounds.

Where only a bound is given, the exact number is not on record here.

For orientation: IC50 means the midpoint of a concentration-inhibition curve. A lower IC50 goes with greater potency in that assay.

This assay has as its system KRAS G12V dependent lung adenocarcinoma cell line, NCI-H441. Put plainly: Cellular pERK (Thr202/Tyr204) FRET/HTRF assay. In kind it is cell-based. As to conditions: Homo sapiens, NCI-H441, cellular pERK (Thr202/Tyr204) HTRF, NCI-H441 cells. An outline of the steps:
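NCI-H441 cells (KRAS G12V) were seeded and grown overnight at 37 °C, 5% CO2, then treated with compound in DMSO for 1 hr. Lysates were probed with a Eu3+-cryptate/d2 antibody sandwich against pERK1/2 Thr202/Tyr204 and read by HTRF at 665 nm; IC50 from curve fitting.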
`[2H]C([2H])(F)Oc1c(F)c(F)c(F)c2cc(N)cc(-c3ncc4c(N5CCOC[C@H]6[C@H](F)[C@H]65)nc(OC([2H])([2H])[C@@]56CCCN5C[C@H](F)C6)nc4c3F)c12` [Example 128, 6,7,8-trifluoro-4-(8-fluoro-4-((1S,7S,8S)-8-fluoro-5-oxa-2-azabicyclo[5.1.0]octan-2-yl)-2-(((2R,7aS)-2-fluorotetrahydro-1H-pyrrolizin-7a(5H)-yl)methoxy-d2)pyrido[4,3-d]pyrimidin-7-yl)-5-(fluoromethoxy-d2)naphthalen-2-amine] gave an IC50 of under 50 nM.

In the case of `C#Cc1c(F)ccc2cccc(-c3ncc4c(N5CCOC[C@H]6[C@H](F)[C@H]65)nc(OC[C@@]56CCCN5C/C(=C/F)C6)nc4c3F)c12` [Example 129, (1S,7S,8S)-2-(7-(8-Ethynyl-7-fluoronaphthalen-1-yl)-8-fluoro-2-(((S,E)-2-(fluoromethylene)tetrahydro-1H-pyrrolizin-7a(5H)-yl)methoxy)pyrido[4,3-d]pyrimidin-4-yl)-8-fluoro-5-oxa-2-azabicyclo[5.1.0]octane], the IC50 was under 50 nM.

`C#Cc1c(F)ccc2cccc(-c3ncc4c(N5CCOC[C@H]6[C@H](F)[C@H]65)nc(OC[C@@]56CCCN5C/C(=C\F)C6)nc4c3F)c12` [Example 130, (1S,7S,8S)-2-(7-(8-Ethynyl-7-fluoronaphthalen-1-yl)-8-fluoro-2-(((S,Z)-2-(fluoromethylene)tetrahydro-1H-pyrrolizin-7a(5H)-yl)methoxy)pyrido[4,3-d]pyrimidin-4-yl)-8-fluoro-5-oxa-2-azabicyclo[5.1.0]octane] showed a half-maximal inhibitory concentration (IC50) of under 50 nM.

`[2H]C([2H])([2H])Oc1c(F)cc(F)c2cc(N)cc(-c3ncc4c(N5CCOC[C@H]6[C@H](F)[C@H]65)nc(OC([2H])([2H])[C@@]56CCCN5C[C@H](F)C6)nc4c3F)c12` [Example 131, 6,8-difluoro-4-(8-fluoro-4-((1S,7S,8S)-8-fluoro-5-oxa-2-azabicyclo[5.1.0]octan-2-yl)-2-(((2R,7aS)-2-fluorotetrahydro-1H-pyrrolizin-7a(5H)-yl)methoxy-d2)pyrido[4,3-d]pyrimidin-7-yl)-5-(methoxy-d3)naphthalen-2-amine] showed an IC50 of under 50 nM.

Take `[2H]C([2H])([2H])Oc1c(F)c(F)c(F)c2cc(N)cc(-c3ncc4c(N5CCOC[C@H]6[C@H](F)[C@H]65)nc(OC[C@@]56CCCN5C/C(=C/F)C6)nc4c3F)c12` [Example 132, 6,7,8-trifluoro-4-(8-fluoro-4-((1S,7S,8S)-8-fluoro-5-oxa-2-azabicyclo[5.1.0]octan-2-yl)-2-(((S,E)-2-(fluoromethylene)tetrahydro-1H-pyrrolizin-7a(5H)-yl)methoxy)pyrido[4,3-d]pyrimidin-7-yl)-5-(methoxy-d3)naphthalen-2-amine]: the IC50 was under 50 nM.

In turn, `[2H]C([2H])([2H])Oc1c(F)c(F)c(F)c2cc(N)cc(-c3ncc4c(N5CCOC[C@H]6[C@H](F)[C@H]65)nc(OC[C@@]56CCCN5C/C(=C\F)C6)nc4c3F)c12` [Example 133, 6,7,8-trifluoro-4-(8-fluoro-4-((1S,7S,8S)-8-fluoro-5-oxa-2-azabicyclo[5.1.0]octan-2-yl)-2-(((S,Z)-2-(fluoromethylene)tetrahydro-1H-pyrrolizin-7a(5H)-yl)methoxy)pyrido[4,3-d]pyrimidin-7-yl)-5-(methoxy-d3)naphthalen-2-amine] gave a half-inhibitory concentration (IC50) of under 50 nM.

`C#Cc1c(F)ccc2cc(N)cc(-c3ncc4c(N5CCOC[C@H]6[C@H](F)[C@H]65)nc(OC[C@@]56CCCN5CC(=C(F)F)C6)nc4c3F)c12` [Example 134, 4-(2-(((S)-2-(difluoromethylene)tetrahydro-1H-pyrrolizin-7a(5H)-yl)methoxy)-8-fluoro-4-((1S,7S,8S)-8-fluoro-5-oxa-2-azabicyclo[5.1.0]octan-2-yl)pyrido[4,3-d]pyrimidin-7-yl)-5-ethynyl-6-fluoronaphthalen-2-amine] yielded a concentration for half-maximal inhibition (IC50) of under 50 nM.

In turn, `[2H]C([2H])(F)Oc1c(F)c(F)cc2cncc(-c3ncc4c(N5CCOC[C@H]6[C@H](F)[C@H]65)nc(OC([2H])([2H])[C@@]56CCCN5C[C@H](F)C6)nc4c3F)c12` [Example 135, (1S,7S,8S)-2-(7-(6,7-difluoro-5-(fluoromethoxy-d2)isoquinolin-4-yl)-8-fluoro-2-(((2R,7aS)-2-fluorotetrahydro-1H-pyrrolizin-7a(5H)-yl)methoxy-d2)pyrido[4,3-d]pyrimidin-4-yl)-8-fluoro-5-oxa-2-azabicyclo[5.1.0]octane] returned an IC50 of under 50 nM.

Consider `[2H]C([2H])([2H])Oc1c(F)c(F)cc2cncc(-c3ncc4c(N5CCOC[C@H]6[C@H](F)[C@H]65)nc(OC([2H])([2H])[C@@]56CCCN5C[C@H](F)C6)nc4c3F)c12` [Example 136, (1S,7S,8S)-2-(7-(6,7-difluoro-5-(methoxy-d3)isoquinolin-4-yl)-8-fluoro-2-(((2R,7aS)-2-fluorotetrahydro-1H-pyrrolizin-7a(5H)-yl)methoxy-d2)pyrido[4,3-d]pyrimidin-4-yl)-8-fluoro-5-oxa-2-azabicyclo[5.1.0]octane], for which the IC50 was 50 to 500 nM.

For `[2H]C([2H])(F)Oc1c(F)cc(F)c2cc(N)cc(-c3ncc4c(N5CCOC[C@H]6[C@H](F)[C@H]65)nc(OC([2H])([2H])[C@@]56CCCN5C[C@H](F)C6)nc4c3F)c12` [Example 139, 6,8-difluoro-4-(8-fluoro-4-((1S,7S,8S)-8-fluoro-5-oxa-2-azabicyclo[5.1.0]octan-2-yl)-2-(((2R,7aS)-2-fluorotetrahydro-1H-pyrrolizin-7a(5H)-yl)methoxy-d2)pyrido[4,3-d]pyrimidin-7-yl)-5-(fluoromethoxy-d2)naphthalen-2-amine], the IC50 was under 50 nM.

Turning to `[2H]C([2H])([2H])Oc1c(F)cc(F)c2cccc(-c3ncc4c(N5CCCC[C@H]6[C@H](F)[C@H]65)nc(OC([2H])([2H])[C@@]56CCCN5C[C@H](F)C6)nc4c3F)c12` [Example 140, 7-(5,7-difluoro-8-(methoxy-d3)naphthalen-1-yl)-8-fluoro-4-((1S,7R,8S)-8-fluoro-2-azabicyclo[5.1.0]octan-2-yl)-2-(((2R,7aS)-2-fluorotetrahydro-1H-pyrrolizin-7a(5H)-yl)methoxy-d2)pyrido[4,3-d]pyrimidine], the half-maximal inhibitory concentration (IC50) fell in the range of 50 to 500 nM.

Compound `[2H]C([2H])([2H])Oc1c(F)cc(F)c2cc(N)cc(-c3ncc4c(N5CCCC[C@H]6[C@H](F)[C@H]65)nc(OC([2H])([2H])[C@@]56CCCN5C[C@H](F)C6)nc4c3F)c12` [Example 141, 6,8-difluoro-4-(8-fluoro-4-((1S,7R,8S)-8-fluoro-2-azabicyclo[5.1.0]octan-2-yl)-2-(((2R,7aS)-2-fluorotetrahydro-1H-pyrrolizin-7a(5H)-yl)methoxy-d2)pyrido[4,3-d]pyrimidin-7-yl)-5-(methoxy-d3)naphthalen-2-amine] showed a half-inhibitory concentration (IC50) of under 50 nM.

The compound `[2H]C([2H])([2H])Oc1c(F)c(F)c(F)c2cc(N)cc(-c3ncc4c(N5CCOC[C@H]6[C@H](F)[C@H]65)nc(OC[C@@]56CCCN5CC(=C(F)F)C6)nc4c3F)c12` [Example 142, 4-(2-(((S)-2-(difluoromethylene)tetrahydro-1H-pyrrolizin-7a(5H)-yl)methoxy)-8-fluoro-4-((1S,7S,8S)-8-fluoro-5-oxa-2-azabicyclo[5.1.0]octan-2-yl)pyrido[4,3-d]pyrimidin-7-yl)-6,7,8-trifluoro-5-(methoxy-d3)naphthalen-2-amine] registered a 50% inhibitory concentration (IC50) of under 50 nM.

In the case of `C#Cc1c(F)ccc2cccc(-c3ncc4c(N5CCOC[C@H]6[C@H](F)[C@H]65)nc(OC[C@@]56CCCN5CC(=C)C6)nc4c3F)c12` [Example 143, (1S,7S,8S)-2-(7-(8-ethynyl-7-fluoronaphthalen-1-yl)-8-fluoro-2-(((S)-2-methylenetetrahydro-1H-pyrrolizin-7a(5H)-yl)methoxy)pyrido[4,3-d]pyrimidin-4-yl)-8-fluoro-5-oxa-2-azabicyclo[5.1.0]octane], the IC50 was under 50 nM.

As for `[2H]C([2H])(F)Oc1c(F)c(F)cc2cc(N)cc(-c3ncc4c(N5CCOC[C@H]6[C@H](F)[C@H]65)nc(OC[C@@]56CCCN5CC(=C)C6)nc4c3F)c12` [Example 144, 6,7-difluoro-4-(8-fluoro-4-((1S,7S,8S)-8-fluoro-5-oxa-2-azabicyclo[5.1.0]octan-2-yl)-2-(((S)-2-methylenetetrahydro-1H-pyrrolizin-7a(5H)-yl)methoxy)pyrido[4,3-d]pyrimidin-7-yl)-5-(fluoromethoxy-d2)naphthalen-2-amine], the IC50 was under 50 nM.

Turning to `[2H]C([2H])(F)Oc1c(F)ccc2cccc(-c3ncc4c(N5CCOC[C@H]6[C@H](F)[C@H]65)nc(OC[C@@]56CCCN5CC(=C)C6)nc4c3F)c12` [Example 145, (1S,7S,8S)-8-fluoro-2-(8-fluoro-7-(7-fluoro-8-(fluoromethoxy-d2)naphthalen-1-yl)-2-(((S)-2-methylenetetrahydro-1H-pyrrolizin-7a(5H)-yl)methoxy)pyrido[4,3-d]pyrimidin-4-yl)-5-oxa-2-azabicyclo[5.1.0]octane], the IC50 was under 50 nM.

The compound `[2H]C([2H])(F)Oc1c(F)ccc2cccc(-c3ncc4c(N5CCOC[C@H]6[C@H](F)[C@H]65)nc(OC[C@@]56CCCN5CC(=C(F)F)C6)nc4c3F)c12` [Example 146, (1S,7S,8S)-2-(2-(((S)-2-(difluoromethylene)tetrahydro-1H-pyrrolizin-7a(5H)-yl)methoxy)-8-fluoro-7-(7-fluoro-8-(fluoromethoxy-d2)naphthalen-1-yl)pyrido[4,3-d]pyrimidin-4-yl)-8-fluoro-5-oxa-2-azabicyclo[5.1.0]octane] yielded a half-maximal inhibitory concentration (IC50) of under 50 nM.
